This is an account of results in article PMC6213879, “Synthesis and Biological Evaluation of Novel Dehydroabietic Acid-Oxazolidinone Hybrids for Antitumor Properties” (International Journal of Molecular Sciences, 2018).

Format in all cases: cell-based
The subject of test [1] is MGC-803 human gastric cancer cell line. As to the kind of experiment: MTT cytotoxicity assay, MGC-803. As to conditions: Homo sapiens, MGC-803, 48 h, mean ± SD from three independent experiments. The method, then: (§1) The in vitro antiproliferative activity of the DHAA derivatives 3a–o and 4a–o against four human cancer cell lines (MGC-803 human gastric cancer cell line, CNE-2 human nasopharyngeal carcinoma cell line, SK-OV-3 human ovarian carcinoma cell line, NCI-H460 human lung cancer cell line) and the human normal liver cell line LO2 were evaluated by MTT (methyl thiazolytetrazolium) assay and compared with the parent compound DHAA and the positive control cisplatin in each panel.
(§2) The cytotoxicity of the compounds was evaluated against NCI-H460, MGC-803, SK-OV-3, CNE-2 and LO2 using an MTT assay. Cells were grown on 96-well micro-plates at a density of 4 × 10^3 cells per well in DMEM (dulbecco’s modified eagle medium) medium with 10% FBS (fetal bovine serum). The plates were incubated at 37 °C with 5% CO2. The cells were then exposed to different concentrations of target compounds and cisplatin and incubated for another 48 h. Control wells were formed by culture media with the maximum concentration of DMSO used in each assay (1‰). The cells were stained with 20 µL of MTT in an incubator for about 4 h. The medium was thrown away and replaced by […] DMSO. The absorbance (OD) value was read at 490 nm on an enzyme labeling instrument. Each experiment was repeated at least three times to obtain the mean values.
On the technique in general: Tetrazolium assays rely on reduction of a dye to a coloured formazan, in cell work by metabolically active cells.

The test system of test [2] is CNE-2 human nasopharyngeal carcinoma cell line. As to the kind of experiment: MTT cytotoxicity assay, CNE-2. The note with it: Homo sapiens, CNE-2, 48 h, mean ± SD from three independent experiments. As to the method: as §1, §2
The subject of test [3] is SK-OV-3 human ovarian carcinoma cell line. The test is described as follows: MTT cytotoxicity assay, SK-OV-3. The note with it: Homo sapiens, SK-OV-3, 48 h, mean ± SD from three independent experiments. As to the method:
as §1, §2

The subject of test [4] is human normal liver cell line LO2. As to the kind of experiment: MTT cytotoxicity assay, normal LO2 cells. As to conditions: Homo sapiens, L02, 48 h, mean ± SD from three independent experiments. As to the method:
as §1, §2

In test [5] the test system is NCI-H460 human lung cancer cell line. As to the kind of experiment: MTT cytotoxicity assay, NCI-H460. As to conditions: Homo sapiens, NCI-H460, 48 h, mean ± SD from three independent experiments. As to the method: as §1, §2

What is called IC50 is the concentration needed to halve the response being measured. Higher therefore signals weaker potency. As for `CC(C)c1ccc2c(c1)CCC1[C@](C)(C(=O)OCC(O)CNc3ccccc3)CCC[C@]21C` (stereo partly drawn) [Compound 3a, (1R,4aS)-2-Hydroxy-3-(Phenylamino)Propyl-7-Isopropyl-1,4a-Dimethyl-1,2,3,4,4a,9,10,10a-Octahydrophenanthrene-1-Carboxylate], the IC50 is 7.1 ± 1.51 µM in test [1]; 27.87 ± 0.25 µM in test [2]; 15.1 ± 0.57 µM in test [3]; above 100 µM in test [4]; 18.6 ± 0.97 µM in test [5].

For `Cc1ccccc1NCC(O)COC(=O)[C@]1(C)CCC[C@]2(C)c3ccc(C(C)C)cc3CCC12` (stereo partly drawn) [Compound 3b, (1R,4aS)-2-Hydroxy-3-(2-Methylphenylamino)Propyl-7-Isopropyl-1,4a-Dimethyl-1,2,3,4,4a,9,10, 10a-Octahydrophenanthrene-1-Carboxylate], the 50% inhibitory concentration (IC50) is 22.6 ± 2.71 µM in test [1]; above 100 µM in test [2]; above 100 µM in test [3]; above 100 µM in test [4]; above 100 µM in test [5].

Take `Cc1cccc(NCC(O)COC(=O)[C@]2(C)CCC[C@]3(C)c4ccc(C(C)C)cc4CCC23)c1` (stereo partly drawn) [Compound 3c, (1R,4aS)-2-Hydroxy-3-(3-Methylphenylamino)Propyl-7-Isopropyl-1,4a-Dimethyl-1,2,3,4,4a,9,10, 10a-Octahydrophenanthrene-1-Carboxylate]: the IC50 in test [1] was 12.3 ± 4.87 µM; in test [2], 14.6 ± 0.19 µM; in test [3], 14.8 ± 4.03 µM; in test [4], 34.7 ± 0.45 µM; in test [5], 20.1 ± 2.95 µM.

Consider `Cc1ccc(NCC(O)COC(=O)[C@]2(C)CCC[C@]3(C)c4ccc(C(C)C)cc4CCC23)cc1` (stereo partly drawn) [Compound 3d, (1R,4aS)-2-Hydroxy-3-(4-Methylphenylamino)Propyl-7-Isopropyl-1,4a-Dimethyl-1,2,3,4,4a,9,10, 10a-Octahydrophenanthrene-1-Carboxylate], for which the IC50 is 21.8 ± 2.66 µM in test [1]; 44.1 ± 2.89 µM in test [2]; 29.9 ± 0.8 µM in test [3]; above 100 µM in test [4]; 44.8 ± 5.26 µM in test [5].

On to `COc1ccccc1NCC(O)COC(=O)[C@]1(C)CCC[C@]2(C)c3ccc(C(C)C)cc3CCC12` (stereo partly drawn) [Compound 3e, (1R,4aS)-2-Hydroxy-3-(2-Methoxyphenylamino)Propyl-7-Isopropyl-1,4a-Dimethyl-1,2,3,4,4a,9, 10,10a-Octahydrophenanthrene-1-Carboxylate], for which the IC50 in test [1] came to 28.5 ± 1.35 µM; in test [2] it was 27.4 ± 0.51 µM; in test [3], 19.5 ± 2.23 µM; in test [4], 32.3 ± 1.56 µM; in test [5] it was 26.1 ± 1.92 µM.

In the case of `COc1cccc(NCC(O)COC(=O)[C@]2(C)CCC[C@]3(C)c4ccc(C(C)C)cc4CCC23)c1` (stereo partly drawn) [Compound 3f, (1R,4aS)-2-Hydroxy-3-(3-Methoxyphenylamino)Propyl-7-Isopropyl-1,4a-Dimethyl-1,2,3,4,4a,9, 10,10a-Octahydrophenanthrene-1-Carboxylate], the IC50 in test [1] is 18.4 ± 1.45 µM; in test [2], 17.4 ± 4.32 µM; in test [3] it was 18.01 ± 0.09 µM; in test [4], above 100 µM; in test [5] it was 21.9 ± 8.61 µM.

As to `COc1ccc(NCC(O)COC(=O)[C@]2(C)CCC[C@]3(C)c4ccc(C(C)C)cc4CCC23)cc1` (stereo partly drawn) [Compound 3g, (1R,4aS)-2-Hydroxy-3-(4-Methoxyphenylamino)Propyl-7-Isopropyl-1,4a-Dimethyl-1,2,3,4,4a,9, 10,10a-Octahydrophenanthrene-1-Carboxylate], the IC50 is 51.7 ± 1.85 µM in test [1]; above 100 µM in test [2]; above 100 µM in test [3]; above 100 µM in test [4]; above 100 µM in test [5].

For the compound `CC(C)c1ccc2c(c1)CCC1[C@](C)(C(=O)OCC(O)CNc3ccccc3F)CCC[C@]21C` (stereo partly drawn) [Compound 3h, (1R,4aS)-2-Hydroxy-3-(2-Fluorophenylamino)Propyl-7-Isopropyl-1,4a-Dimethyl-1,2,3,4,4a,9,10, 10a-Octahydrophenanthrene-1-Carboxylate], the concentration for half-maximal inhibition (IC50) in test [1] is 17.5 ± 3.51 µM; in test [2], 45.7 ± 5.8 µM; in test [3], above 100 µM; in test [4], above 100 µM; in test [5], 30.2 ± 3.4 µM.

Consider `CC(C)c1ccc2c(c1)CCC1[C@](C)(C(=O)OCC(O)CNc3cccc(F)c3)CCC[C@]21C` (stereo partly drawn) [Compound 3i, (1R,4aS)-2-Hydroxy-3-(3-Fluorophenylamino)Propyl-7-Isopropyl-1,4a-Dimethyl-1,2,3,4,4a,9,10, 10a-Octahydrophenanthrene-1-Carboxylatev], for which the 50% inhibitory concentration (IC50) in test [1], in test [2], in test [3], in test [4] and in test [5] was above 100 µM throughout.

With `CC(C)c1ccc2c(c1)CCC1[C@](C)(C(=O)OCC(O)CNc3ccc(F)cc3)CCC[C@]21C` (stereo partly drawn) [Compound 3j, (1R,4aS)-2-Hydroxy-3-(4-Fluorophenylamino)Propyl-7-Isopropyl-1,4a-Dimethyl-1,2,3,4,4a,9,10, 10a-Octahydrophenanthrene-1-Carboxylate], the 50% inhibitory concentration (IC50) is 14.2 ± 1.7 µM in test [1]; 20.7 ± 2.31 µM in test [2]; 18.9 ± 1.66 µM in test [3]; 28.7 ± 0.55 µM in test [4]; 15.6 ± 1.45 µM in test [5].

Turning to `CC(C)c1ccc2c(c1)CCC1[C@](C)(C(=O)OCC(O)CNc3cccc(Cl)c3)CCC[C@]21C` (stereo partly drawn) [Compound 3k, (1R,4aS)-2-Hydroxy-3-(3-Chlorophenylamino)Propyl-7-Isopropyl-1,4a-Dimethyl-1,2,3,4,4a,9,10, 10a-Octahydrophenanthrene-1-Carboxylate], the IC50 is 13.1 ± 2.66 µM in test [1]; 18.2 ± 4.06 µM in test [2]; 25.1 ± 4.8 µM in test [3]; 35.3 ± 0.57 µM in test [4]; 18.1 ± 2.33 µM in test [5].

Take `CC(C)c1ccc2c(c1)CCC1[C@](C)(C(=O)OCC(O)CNc3ccc(Cl)cc3)CCC[C@]21C` (stereo partly drawn) [Compound 3l, (1R,4aS)-2-Hydroxy-3-(4-Chlorophenylamino)Propyl-7-Isopropyl-1,4a-Dimethyl-1,2,3,4,4a,9,10, 10a-Octahydrophenanthrene-1-Carboxylate]: the half-maximal inhibitory concentration (IC50) in test [1] was 34.48 ± 0.02 µM; in test [2], above 100 µM; in test [3] it was above 100 µM; in test [4], above 100 µM; in test [5] it was above 100 µM.

On to `CC(C)c1ccc2c(c1)CCC1[C@](C)(C(=O)OCC(O)CNc3cccc(Br)c3)CCC[C@]21C` (stereo partly drawn) [Compound 3m, (1R,4aS)-2-Hydroxy-3-(3-Bromophenylamino)Propyl-7-Isopropyl-1,4a-Dimethyl-1,2,3,4,4a,9,10, 10a-Octahydrophenanthrene-1-Carboxylate], for which the 50% inhibitory concentration (IC50) in test [1] was 16.5 ± 5.2 µM; in test [2] it was 23.2 ± 2.78 µM; in test [3], 30.3 ± 0.59 µM; in test [4] it was above 100 µM; in test [5], 19.6 ± 1.12 µM.

Turning to `CC(C)c1ccc2c(c1)CCC1[C@](C)(C(=O)OCC(O)CNc3ccc(Br)cc3)CCC[C@]21C` (stereo partly drawn) [Compound 3n, (1R,4aS)-2-Hydroxy-3-(4-Bromophenylamino)Propyl-7-Isopropyl-1,4a-Dimethyl-1,2,3,4,4a,9,10, 10a-Octahydrophenanthrene-1-Carboxylate], the IC50 in test [1] is 9.91 ± 7 µM; in test [2], 17.9 ± 4.47 µM; in test [3], 19 ± 2.11 µM; in test [4], above 100 µM; in test [5] it was 19.1 ± 5.23 µM.

`C#Cc1cccc(NCC(O)COC(=O)[C@]2(C)CCC[C@]3(C)c4ccc(C(C)C)cc4CCC23)c1` (stereo partly drawn) [Compound 3o, (1R,4aS)-2-Hydroxy-3-(3-Ethynylphenylamino)Propyl-7-Isopropyl-1,4a-Dimethyl-1,2,3,4,4a,9, 10,10a-Octahydrophenanthrene-1-Carboxylate]: the 50% inhibitory concentration (IC50) is 13.4 ± 5.41 µM in test [1]; 20 ± 1.09 µM in test [2]; 23.1 ± 2.23 µM in test [3]; above 100 µM in test [4]; 22.3 ± 2.74 µM in test [5].

`CC(C)c1ccc2c(c1)CCC1[C@](C)(C(=O)OCC3CN(c4ccccc4)C(=O)O3)CCC[C@]21C` (stereo partly drawn) [Compound 4a, (1R,4aS)-(2-Oxo-3-Phenyloxazolidin-5-yl)Methyl-7-Isopropyl-1,4a-Dimethyl-1,2,3,4,4a,9,10,10a-Octahydrophenanthrene-1-Carboxylate]: the IC50 is 11 ± 4.41 µM in test [1]; 9.69 ± 0.13 µM in test [2]; above 100 µM in test [3]; above 100 µM in test [4]; 4.83 ± 0.77 µM in test [5].

In the case of `Cc1ccccc1N1CC(COC(=O)[C@]2(C)CCC[C@]3(C)c4ccc(C(C)C)cc4CCC23)OC1=O` (stereo partly drawn) [Compound 4b, (1R,4aS)-(3-(2-Methylphenyl)-2-Oxooxazolidin-5-yl)Methyl-7-Isopropyl-1,4a-Dimethyl-1,2,3,4,4a,9,10,10a-Octahydrophenanthrene-1-Carboxylate], the IC50 in test [1] is 25 ± 5.02 µM; in test [2], above 100 µM; in test [3], above 100 µM; in test [4], above 100 µM; in test [5], 27.7 ± 5.03 µM.
